Source: the NIST ThermoML archive (doi:10.1016/j.jct.2006.10.017)

Experiments:
[1] = refractive index (Na D-line) (dimensionless); conditions: 101.33 kPa, Liquid
[2] = 101 kPa, Liquid
[3] = refractive index (Na D-line) (dimensionless); xn = mol fraction of the nth substance listed; conditions: 101 kPa, Liquid
[4] = xn = mol fraction of the nth substance listed; conditions: 101 kPa, Liquid

COS(=O)(=O)[O-].Cn1cc[n+](C)c1 [1,3-dimethylimidazolium methylsulfate]
Conditions | mass density, 293.15 K [kg/m3] | mass density, 298.15 K [kg/m3] | mass density, 303.15 K [kg/m3] | refractive index, 293.15 K | refractive index, 298.15 K | refractive index, 303.15 K | speed of sound, 293.15 K [m/s] | speed of sound, 298.15 K [m/s] | speed of sound, 303.15 K [m/s]
[1] | – | – | – | 1.48392 | 1.4827 | 1.48129 | – | – | –
[2] | 1330.9 | 1327.2 | 1323.7 | – | – | – | 1826 | 1813 | 1801

CCCCn1cc[n+](C)c1.COS(=O)(=O)[O-] [1-butyl-3-methylimidazolium methyl sulfate]
Conditions | mass density, 293.15 K [kg/m3] | mass density, 298.15 K [kg/m3] | mass density, 303.15 K [kg/m3] | refractive index, 293.15 K | refractive index, 298.15 K | refractive index, 303.15 K | speed of sound, 293.15 K [m/s] | speed of sound, 298.15 K [m/s] | speed of sound, 303.15 K [m/s]
[1] | – | – | – | 1.48077 | 1.47942 | 1.47806 | – | – | –
[2] | 1215.6 | 1212.2 | 1208.8 | – | – | – | 1671 | 1658 | 1645

CCCCCCCC[n+]1ccn(C)c1.F[P-](F)(F)(F)(F)F [1-octyl-3-methylimidazolium hexafluorophosphate]
Conditions | mass density, 293.15 K [kg/m3] | mass density, 298.15 K [kg/m3] | mass density, 303.15 K [kg/m3] | refractive index, 293.15 K | refractive index, 298.15 K | refractive index, 303.15 K | speed of sound, 293.15 K [m/s] | speed of sound, 298.15 K [m/s] | speed of sound, 303.15 K [m/s]
[1] | – | – | – | 1.4244 | 1.42302 | 1.42165 | – | – | –
[2] | 1239.6 | 1235.7 | 1231.9 | – | – | – | 1424 | 1408 | 1393

CCO [ethanol]
Conditions | mass density, 293.15 K [kg/m3] | mass density, 298.15 K [kg/m3] | mass density, 303.15 K [kg/m3] | refractive index, 293.15 K | refractive index, 298.15 K | refractive index, 303.15 K | speed of sound, 293.15 K [m/s] | speed of sound, 298.15 K [m/s] | speed of sound, 303.15 K [m/s]
[1] | – | – | – | 1.36138 | 1.35929 | 1.35725 | – | – | –
[2] | 789.3 | 785.1 | 780.7 | – | – | – | 1160 | 1143 | 1127

CCCCCCn1cc[n+](C)c1.F[P-](F)(F)(F)(F)F [1-hexyl-3-methylimidazolium hexafluorophosphate]
Conditions | mass density, 293.15 K [kg/m3] | mass density, 298.15 K [kg/m3] | mass density, 303.15 K [kg/m3] | refractive index, 293.15 K | refractive index, 298.15 K | refractive index, 303.15 K | speed of sound, 293.15 K [m/s] | speed of sound, 298.15 K [m/s] | speed of sound, 303.15 K [m/s]
[1] | – | – | – | 1.41923 | 1.41787 | 1.41643 | – | – | –
[2] | 1297.9 | 1293.7 | 1289.6 | – | – | – | 1438 | 1424 | 1411

CCCCn1cc[n+](C)c1.F[P-](F)(F)(F)(F)F [1-butyl-3-methylimidazolium hexafluorophosphate]
Conditions | mass density, 293.15 K [kg/m3] | mass density, 298.15 K [kg/m3] | mass density, 303.15 K [kg/m3] | refractive index, 293.15 K | refractive index, 298.15 K | refractive index, 303.15 K | speed of sound, 293.15 K [m/s] | speed of sound, 298.15 K [m/s] | speed of sound, 303.15 K [m/s]
[1] | – | – | – | 1.41069 | 1.40937 | 1.40808 | – | – | –
[2] | 1371.6 | 1367.3 | 1363 | – | – | – | 1455 | 1443 | 1431

CCCCn1cc[n+](C)c1.F[P-](F)(F)(F)(F)F [1-butyl-3-methylimidazolium hexafluorophosphate] + CCO
Conditions | mass density, 293.15 K [kg/m3] | mass density, 298.15 K [kg/m3] | mass density, 303.15 K [kg/m3] | refractive index, 293.15 K | refractive index, 298.15 K | refractive index, 303.15 K | speed of sound, 293.15 K [m/s] | speed of sound, 298.15 K [m/s] | speed of sound, 303.15 K [m/s]
[3], x1 = 0.0009 | – | – | – | 1.36162 | 1.35956 | 1.35751 | – | – | –
[3], x1 = 0.0021 | – | – | – | 1.36196 | 1.3599 | 1.35781 | – | – | –
[3], x1 = 0.0033 | – | – | – | 1.36222 | 1.36018 | 1.35812 | – | – | –
[3], x1 = 0.0056 | – | – | – | 1.36281 | 1.3608 | 1.35871 | – | – | –
[3], x1 = 0.496 | – | – | – | 1.40171 | 1.40034 | 1.3994 | – | – | –
[3], x1 = 0.5032 | – | – | – | 1.40193 | 1.40055 | 1.39959 | – | – | –
[3], x1 = 0.5981 | – | – | – | 1.40432 | 1.40294 | 1.40176 | – | – | –
[3], x1 = 0.7045 | – | – | – | 1.40639 | 1.40507 | 1.40376 | – | – | –
[3], x1 = 0.8003 | – | – | – | 1.4079 | 1.40656 | 1.40522 | – | – | –
[3], x1 = 0.9002 | – | – | – | 1.4093 | 1.40799 | 1.40666 | – | – | –
[3], x1 = 0.9834 | – | – | – | 1.41052 | 1.40923 | 1.40795 | – | – | –
[3], x1 = 1 | – | – | – | 1.41069 | 1.40937 | 1.40808 | – | – | –
[4], x1 = 0.0009 | 791.5 | 787.4 | 783.1 | – | – | – | 1163 | 1144 | 1126
[4], x1 = 0.0021 | 794.3 | 790.1 | 785.8 | – | – | – | 1162 | 1145 | 1128
[4], x1 = 0.0033 | 797 | 792.8 | 788.5 | – | – | – | 1164 | 1146 | 1128
[4], x1 = 0.0056 | 802.3 | 798.1 | 793.8 | – | – | – | 1166 | 1147 | 1130
[4], x1 = 0.496 | 1246.7 | 1242.2 | 1237.9 | – | – | – | 1371 | 1359 | 1347
[4], x1 = 0.5032 | 1249.4 | 1245 | 1240.7 | – | – | – | 1373 | 1361 | 1349
[4], x1 = 0.5981 | 1282 | 1277.6 | 1273.4 | – | – | – | 1397 | 1384 | 1372
[4], x1 = 0.7045 | 1311.6 | 1307.3 | 1303 | – | – | – | 1417 | 1404 | 1391
[4], x1 = 0.8003 | 1333.9 | 1329.6 | 1325.4 | – | – | – | 1431 | 1418 | 1405
[4], x1 = 0.9002 | 1354.1 | 1349.9 | 1345.7 | – | – | – | 1443 | 1430 | 1418
[4], x1 = 0.9834 | 1368.8 | 1364.7 | 1360.5 | – | – | – | 1454 | 1440 | 1428
[4], x1 = 1 | 1371.6 | 1367.3 | 1363 | – | – | – | 1455 | 1443 | 1431

CCO [ethanol] + CCCCCCn1cc[n+](C)c1.F[P-](F)(F)(F)(F)F
x2 = 0
Conditions | mass density, 293.15 K [kg/m3] | mass density, 298.15 K [kg/m3] | mass density, 303.15 K [kg/m3] | refractive index, 293.15 K | refractive index, 298.15 K | refractive index, 303.15 K | speed of sound, 293.15 K [m/s] | speed of sound, 298.15 K [m/s] | speed of sound, 303.15 K [m/s]
[3] | – | – | – | 1.36138 | 1.35929 | 1.35725 | – | – | –
[4] | 789.3 | 785.1 | 780.7 | – | – | – | 1160 | 1143 | 1127
